The target of the experiment is T1, glucokinase (GK), residues 12-465 of the human enzyme (Homo sapiens, UniProt P35557).
T1 construct: I.D. No. 1 corresponds to residues 12-465 of glucokinase; made in house; host or cells: E. coli DH10b-Tlr
T1 sequence (P35557 with tags, fused parts or gaps isoform P35557-2): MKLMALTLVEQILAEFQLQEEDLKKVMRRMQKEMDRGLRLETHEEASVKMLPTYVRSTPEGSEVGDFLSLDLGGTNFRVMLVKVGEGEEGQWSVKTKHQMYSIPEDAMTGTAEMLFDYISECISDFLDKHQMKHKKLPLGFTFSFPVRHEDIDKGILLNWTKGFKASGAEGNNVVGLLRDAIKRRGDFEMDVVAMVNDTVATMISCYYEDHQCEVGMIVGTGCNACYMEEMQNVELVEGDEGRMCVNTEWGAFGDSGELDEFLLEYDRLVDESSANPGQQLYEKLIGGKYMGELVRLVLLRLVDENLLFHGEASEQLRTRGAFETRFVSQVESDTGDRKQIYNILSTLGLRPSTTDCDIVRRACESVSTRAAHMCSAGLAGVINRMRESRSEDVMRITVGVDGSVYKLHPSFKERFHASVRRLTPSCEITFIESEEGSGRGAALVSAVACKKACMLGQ
Put plainly: Enzymatic glucokinase activity assay (KinaseGlo luminescence, ATP consumption). The conditions noted are these: 5 μM ATP, 5 mM Glucose; for EC50: GK activation, Kact = concentration giving 50% of the maximal increase in GK activity, read-out: pKact; for Emax: calculated maximal gain in GK enzyme activity at a saturating concentration of the compound, read-out: % ACTmax. It is filed as biochemical. The essentials: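 Activation measured as ATP consumption: residual ATP detected by KinaseGlo luminescence after 60 min at room temperature with 5 μM ATP and 5 mM glucose (Hepes pH 7.2, MgCl2, Brij35, DTT, 2% DMSO). Enzyme was recombinant FLAG-tagged protein from E. coli. Eleven-point twofold series were fitted nonlinearly for pKact and % ACTmax.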

We go through 24 compounds from patent US8173645B2 (Takeda San Diego, Inc., priority 2007, dated 2012).

Regarding `O=C(Nc1nccs1)[C@H](CC1CCCCC1)N1CCN(C(=O)Nc2ccc(Cl)c(Cl)c2)CC1=O` [Example 131, (S)-4-(3-cyclohexyl-1-oxo-1-(thiazol-2-ylamino)propan-2-yl)-N-(3,4-dichlorophenyl)-3-oxopiperazine-1-carboxamide], the EC50 is at least 3160 nM and the Emax was at most 74%.

On to `N#Cc1ccc(NC(=O)N2CCN([C@@H](CC3CCCCC3)C(=O)Nc3nccs3)C(=O)C2)cc1` [Example 132, (S)-N-(4-cyanophenyl)-4-(3-cyclohexyl-1-oxo-1-(thiazol-2-ylamino)propan-2-yl)-3-oxopiperazine-1-carboxamide], for which the EC50 is at least 3160 nM and the Emax is at most 74%.

In the case of `CCN(CC)CCCNC(=S)N1CCN([C@@H](CC2CCCCC2)C(=O)Nc2nccs2)C(=O)C1` [Example 133, (S)-3-cyclohexyl-2-(4-(3-(diethylamino)propylcarbamothioyl)-2-oxopiperazin-1-yl)-N-(thiazol-2-yl)propanamide], the EC50 was 794 to 1260 nM and the Emax was 97.1 to 107%.

`NS(=O)(=O)c1ccc(NC(=S)N2CCN([C@@H](CC3CCCCC3)C(=O)Nc3nccs3)C(=O)C2)cc1` [Example 134, (S)-3-cyclohexyl-2-(2-oxo-4-(4-sulfamoylphenylcarbamothioyl)piperazin-1-yl)-N-(thiazol-2-yl)propanamide]: the EC50 is 1580 to 2510 nM and the Emax was 108 to 119%.

As to `O=C(Nc1nccs1)[C@H](CC1CCCCC1)N1CCN(C(=S)Nc2ccc(OC(F)F)cc2)CC1=O` [Example 135, (S)-3-cyclohexyl-2-(4-(4-(difluoromethoxy)phenylcarbamothioyl)-2-oxopiperazin-1-yl)-N-(thiazol-2-yl)propanamide], the EC50 is at least 3160 nM and the Emax was 97.1 to 107%.

For `O=C(Nc1nccs1)[C@H](CC1CCCCC1)N1CCN(C(=S)Nc2ccccc2OC(F)(F)F)CC1=O` [Example 136, (S)-3-cyclohexyl-2-(2-oxo-4-(2-(trifluoromethoxy)phenylcarbamothioyl)piperazin-1-yl)-N-(thiazol-2-yl)propanamide], the EC50 was in the range of 794 to 1260 nM and the Emax is at least 119%.

With `O=C(Nc1nccs1)[C@H](CC1CCCCC1)N1CCN(C(=O)Nc2ccc(Cl)cc2)CC1=O` [Example 137, (S)-N-(4-chlorophenyl)-4-(3-cyclohexyl-1-oxo-1-(thiazol-2-ylamino)propan-2-yl)-3-oxopiperazine-1-carboxamide], the EC50 is at least 3160 nM and the Emax was at most 74%.

For `O=C(Nc1nccs1)[C@H](CC1CCCCC1)N1CCN(C(=O)NCc2ccc(Cl)cc2)CC1=O` [Example 138, (S)-N-(4-chlorobenzyl)-4-(3-cyclohexyl-1-oxo-1-(thiazol-2-ylamino)propan-2-yl)-3-oxopiperazine-1-carboxamide], the EC50 is at least 3160 nM and the Emax is at most 74%.

Take `O=C(Nc1nccs1)[C@H](CC1CCCCC1)N1CCN(C(=O)Nc2ccc3ccccc3c2)CC1=O` [Example 139, (S)-4-(3-cyclohexyl-1-oxo-1-(thiazol-2-ylamino)propan-2-yl)-N-(naphthalen-2-yl)-3-oxopiperazine-1-carboxamide]: the EC50 is at least 3160 nM and the Emax was 74.1 to 97%.

For the compound `O=C(Nc1nccs1)[C@H](CC1CCCCC1)N1CCN(C(=O)NC2CCCC2)CC1=O` [Example 140, (S)-4-(3-cyclohexyl-1-oxo-1-(thiazol-2-ylamino)propan-2-yl)-N-cyclopentyl-3-oxopiperazine-1-carboxamide], the EC50 was at least 3160 nM and the Emax is 74.1 to 97%.

In the case of `O=C(Nc1nccs1)[C@H](CC1CCCCC1)N1CCN(C(=O)Nc2cccc(C(F)(F)F)c2)CC1=O` [Example 141, (S)-4-(3-cyclohexyl-1-oxo-1-(thiazol-2-ylamino)propan-2-yl)-3-oxo-N-(3-(trifluoromethyl)phenyl)piperazine-1-carboxamide], the EC50 was at least 3160 nM and the Emax is 74.1 to 97%.

Take `O=C(Nc1nccs1)[C@H](CC1CCCCC1)N1CCN(C(=O)Nc2ccc(C(F)(F)F)cc2)CC1=O` [Example 142, (S)-4-(3-cyclohexyl-1-oxo-1-(thiazol-2-ylamino)propan-2-yl)-3-oxo-N-(4-(trifluoromethyl)phenyl)piperazine-1-carboxamide]: the EC50 was at least 3160 nM and the Emax was at most 74%.

Take `COc1ccc(CCNC(=O)N2CCN([C@@H](CC3CCCCC3)C(=O)Nc3nccs3)C(=O)C2)cc1OC` [Example 143, (S)-4-(3-cyclohexyl-1-oxo-1-(thiazol-2-ylamino)propan-2-yl)-N-(3,4-dimethoxyphenethyl)-3-oxopiperazine-1-carboxamide]: the EC50 was at least 3160 nM and the Emax is at least 119%.

On to `O=C(Nc1nccs1)[C@H](CC1CCCCC1)N1CCN(C(=O)Nc2ccc3sccc3c2)CC1=O` [Example 144, (S)-N-(benzo[b]thiophen-5-yl)-4-(3-cyclohexyl-1-oxo-1-(thiazol-2-ylamino)propan-2-yl)-3-oxopiperazine-1-carboxamide], for which the EC50 is at least 3160 nM and the Emax was at most 74%.

`O=C(Nc1nccs1)[C@H](CC1CCCCC1)N1CCN(C(=O)Nc2ccc3c(c2)OCCO3)CC1=O` [Example 145, (S)-4-(3-cyclohexyl-1-oxo-1-(thiazol-2-ylamino)propan-2-yl)-N-(2,3-dihydrobenzo[b][1,4]dioxin-6-yl)-3-oxopiperazine-1-carboxamide]: the EC50 is at least 3160 nM and the Emax is 74.1 to 97%.

As for `O=C(Nc1nccs1)[C@H](CC1CCCCC1)N1CCN(C(=O)Nc2ccc(OCc3ccccc3)cc2)CC1=O` [Example 146, (S)-N-(4-(benzyloxy)phenyl)-4-(3-cyclohexyl-1-oxo-1-(thiazol-2-ylamino)propan-2-yl)-3-oxopiperazine-1-carboxamide], the EC50 is at least 3160 nM and the Emax is at most 74%.

For the compound `O=C(Nc1ncc(Cl)s1)C(CC1CCOCC1)N1CCN(S(=O)(=O)c2cccc(F)c2)CC1=O` (stereo not drawn) [Example 147, N-(5-chlorothiazol-2-yl)-2-(4-(3-fluorophenylsulfonyl)-2-oxopiperazin-1-yl)-3-(tetrahydro-2H-pyran-4-yl)propanamide], the EC50 lay in the range of 794 to 1260 nM and the Emax was 108 to 119%.

With `O=C(Nc1ncc(F)s1)C(CC1CCOCC1)N1CCN(S(=O)(=O)c2cccc(F)c2)CC1=O` (stereo not drawn) [Example 148, 2-(4-(3-fluorophenylsulfonyl)-2-oxopiperazin-1-yl)-N-(5-fluorothiazol-2-yl)-3-(tetrahydro-2H-pyran-4-yl)propanamide], the EC50 is 794 to 1260 nM and the Emax was 108 to 119%.

For the compound `O=C(Nc1ncc(Cl)s1)[C@H](CC1CCOCC1)N1CCN(S(=O)(=O)c2cccc(F)c2)CC1=O` [Example 150, (S)-N-(5-chlorothiazol-2-yl)-2-(4-(3-fluorophenylsulfonyl)-2-oxopiperazin-1-yl)-3-(tetrahydro-2H-pyran-4-yl)propanamide], the EC50 is at most 631 nM and the Emax is 108 to 119%.

For the compound `O=C(Nc1ncc(F)s1)[C@H](CC1CCOCC1)N1CCN(S(=O)(=O)c2cccc(F)c2)CC1=O` [Example 152, (S)-2-(4-(3-fluorophenylsulfonyl)-2-oxopiperazin-1-yl)-N-(5-fluorothiazol-2-yl)-3-(tetrahydro-2H-pyran-4-yl)propanamide], the EC50 is at most 631 nM and the Emax was at least 119%.

Turning to `O=C(Nc1nccs1)[C@H](CC1CCCCC1)N1CCN(S(=O)(=O)c2cccc([N+](=O)[O-])c2)CC1=O` [Example 156, (S)-3-cyclohexyl-2-(4-(3-nitrophenylsulfonyl)-2-oxopiperazin-1-yl)-N-(thiazol-2-yl)propanamide], the EC50 is 1580 to 2510 nM and the Emax was 97.1 to 107%.

As for `COC(=O)c1cc(C)c(S(=O)(=O)N2CCN([C@@H](CC3CCCCC3)C(=O)Nc3nccs3)C(=O)C2)s1` [Example 157, (S)-methyl 5-(4-(3-cyclohexyl-1-oxo-1-(thiazol-2-ylamino)propan-2-yl)-3-oxopiperazin-1-ylsulfonyl)-4-methylthiophene-2-carboxylate], the EC50 fell in the range of 1580 to 2510 nM and the Emax was at most 74%.

In the case of `COC(=O)c1ccc(S(=O)(=O)N2CCN([C@@H](CC3CCCCC3)C(=O)Nc3nccs3)C(=O)C2)o1` [Example 158, (S)-methyl 5-(4-(3-cyclohexyl-1-oxo-1-(thiazol-2-ylamino)propan-2-yl)-3-oxopiperazin-1-ylsulfonyl)furan-2-carboxylate], the EC50 was at least 3160 nM and the Emax was 74.1 to 97%.

For `COC(=O)c1cc(S(=O)(=O)N2CCN([C@@H](CC3CCCCC3)C(=O)Nc3nccs3)C(=O)C2)oc1C` [Example 159, (S)-methyl 5-(4-(3-cyclohexyl-1-oxo-1-(thiazol-2-ylamino)propan-2-yl)-3-oxopiperazin-1-ylsulfonyl)-2-methylfuran-3-carboxylate], the EC50 was 794 to 1260 nM and the Emax is 97.1 to 107%.
